“Also recorded” adds a separate entry of the source.
Experiments:
[1] = tested on: models of neurodegeneration; assay: In vivo effect brain concentration (in vitro-in vivo correlation)
Source text: See Guatam M., Platform presentation. NEALS, 2022. […] See Keefe, et al. (2019); Gautam, et al. (2022); Guatam, et al. (2021). Gautam, et al., SBT-272 improved mitochondria structure and function and preserved upper motor neurons with TDP-43 pathology, Platform poster presentation, presented at NEALS poster session (2022); Bido, et al. (2021); Silva, et al. (2022); and Zariwala, et al., Effects of the mitochondria-targeting small molecule SBT-272 in the R6/2 transgenic mice of Huntington's Disease, Poster presented at Keystone Symposia poster Session, 2022.

[2] = Phase 1 clinical safety and tolerability in healthy volunteers; type: in vivo, human; settings: Phase 1, healthy volunteers, SC; interim data analysis
Source text: (§1) The primary objective of this study is to evaluate the safety and tolerability of single and multiple ascending doses of SBT-272 administered via subcutaneous injection in healthy volunteers. The secondary objects of this study are to: (a) evaluate the plasma PK of SBT-272 in healthy volunteers following subcutaneous administration of single and multiple ascending doses; and (b) to determine an appropriate dose range for subsequence clinical evaluation.

[3] = Steady state PK in plasma, CSF, brain cortex after 10 daily s.c. doses in nonhuman primates; type: in vivo, cynomolgus monkey
Experimental: Pharmacokinetic profile of SBT-272 in nonhuman primate plasma, CSF, and brain. The objective of this study was to determine the pharmacokinetic profile of SBT-272 in CSF and plasma when delivered by subcutaneous (SC) injection for 10 days to cynomolgus monkeys. SBT-272 solution was administered daily by SC injection for 10 days. The following parameters and endpoints were evaluated in this study: mortality, clinical observations, body weights, pharmacokinetic samples (CSF and plasma), and selected tissue collection. There was no mortality during the study. […] Additional details regarding the experimental protocol are provided below.
Test System. Details Regarding the Test System are Provided Below: • Species: Nonhuman primate • Strain/Breed: Cynomolgus monkey • Animal Condition: Non-naïve • Animal Procurement Method: In-house colony • Animal Supplier: Charles River Laboratories • Animal Supplier Location: 531 Boul des Prairies, Laval, QC H7V 1B7, Canada • Animal Origin: Asia • Number of Males: 3 • Age at the Initiation of Dosing: 18 to 60 months • Weight at the Initiation of Dosing: 1.4 to 5.0 kg
Study design. The study design is described in Table 9.
• Route of Administration: Subcutaneous injection into the scapular and mid-dorsal areas • Treatment Frequency: Daily • Treatment Duration: 10 days • Method: The first day of dosing is designated as Day 1. Dose formulations are allowed to warm up at ambient temperature for at least 30 minutes prior to dosing, as appropriate. The animals are temporarily restrained for dose administration and are not be sedated. The volume for each dose is administered over 1 (preferred) or 2 (as necessary) separate injections within the designated area. Injection sites are rotated daily (see FIG. 4B). If a designated subcutaneous test site is not available for a given animal on any day, then the next available test site in the rotation should be used for dosing. The injection area is marked as frequently as required to allow appropriate visualization of administration sites. Hair may be clipped or shaved if required to improve visualization of the injection sites. On the last injection occasion for each quadrant, the last site of injection is circled, and the circled site is collected at necropsy.
CSF Sample Processing. CSF samples re processed and stored within 1 hour of collection. Following each CSF collection, the sample is visually inspected, and the appearance is recorded. Samples are maintained on wet ice prior to and after centrifugation. Samples are centrifuged for 5 minutes in a refrigerated centrifuge (set to maintain 4 °C) at 2000 g RCF within 1 hour of collection. The resultant supernatant is collected within 30 minutes (as quickly as possible) of centrifugation and will be visually inspected; the appearance of the supernatant and any traces of blood in the pellet re recorded. Precipitate (if any) is discarded. CSF samples are separated into 2 approximately 100 μL equal aliquots into uniquely labelled low protein binding polypropylene tubes each containing 10 μL of 5% (v/v) phosphoric acid aqueous solution. Any remaining CSF will be transferred into a 3rd low protein binding polypropylene tube containing a volume of 5% (v/v) phosphoric acid solution adjusted to result in a 1:10 ratio of acid solution: CSF. All samples are placed on dry ice and transferred to a freezer set to maintain −70 °C.
Plasma Sample Processing. […]

[4] = Phase 1 clinical plasma PK in healthy volunteers; type: in vivo, human
Source text: as §1

SMILES: Cc1cc(O)cc(C)c1C[C@H](NC(=O)[C@H](N)CCCNC(=N)N)C(=O)N[C@@H](CCCCN)c1nc(Cc2ccccc2)no1 [SBT-272, (R)-2-amino-N—((S)-1-(((S)-5-amino-1-(3-benzyl-1,2,4-oxadiazol-5-yl)pentyl)amino)-3-(4-hydroxy-2,6-dimethylphenyl)-1-oxopropan-2-yl)-5-guanidinopentanamide]
- optimal in vivo effects, concentration ([1]; FIG. 3B): 10 to 100 nM
- brain concentration as a potential target for pharmacodynamic effect ([1]; from in vitro and in vivo correlations): 10 to 100 nM
- safety profile [2]: consistent safety profile; also recorded: generally safe
- plasma:CSF ratio ([3]; cynomolgus monkey, 5 mg/kg s.c., 10 daily doses): 6.40
- brain:CSF ratio ([3]; cynomolgus monkey, brain (cortex), 5 mg/kg s.c., 10 daily doses): 328
- Kp ([3]; in vivo, sc, cynomolgus monkey, brain (cortex), 5 mg/kg s.c., 10 daily doses, read-out: brain:plasma ratio): 51
- brain drug concentration versus predictions based on rodent studies ([3]; nonhuman primate, FIGS. 5A-5B): met predictions based on rodent studies
- correlation between species in steady state brain concentration at trough ([3]; rat and nonhuman primate, repeated SC dosing): excellent correlation between species in steady state brain concentration at trough
- clinical PK versus expectations based on rat and nonhuman primate profiles ([4]; Phase 1, healthy volunteers, SC): consistent with expectations based on rat and nonhuman primate profiles
- clinical PK profile versus non-clinical allometric scaling predictions ([4]; healthy subjects, FIG. 7, 40 mg once daily, interim): consistent with non-clinical allometric scaling predictions

Reference: patent US20260373226A1, “METHODS AND COMPOSITIONS FOR THE TREATMENT OF NEURODEGENERATIVE DISEASE” (Stealth BioTherapeutics Inc., priority 2022, published 2026)
